Test results reported in patent publication US12324812B2, “Glucopyranosyl derivatives and their uses” (SUNSHINE LAKE PHARMA CO., LTD., priority 2019, dated 2025).
pIC50: −log10 of the molar value.

What was measured:
SD rats = assay: Oral glucose tolerance test in SD rats; assay type: in vivo, rat; settings: male SD rats, 0.1 mg/kg once by gavage, glucose 4.0 g/kg; decline rate of AUCGlu 0-60 min after sugar loading
Protocol: 2. Oral Glucose Tolerance Test and UrinaR^y Glucose Excretion Test
The following methods were used to evaluate the effects of the compounds of the invention on improving oral glucose tolerance and glycosuria excretion.
Test method: The weight and the fasting blood glucose levels of male SD rats were measured after an overnight 15-hour fast. The rats were grouped by their weights and fasting plasma glucose levels. Each test group was administered with the corresponding test compound once by gavage at a dose of 0.1 mg/Kg, and the blank control group was administered solvent. After 30 minutes, the blood glucose level (i.e. zeropoint blood glucose) of each group was measured, and then each group was immediately administered glucose (4.0 g/kg) once by gavage. The blood was drawn from the tail vein at 15, 30 and 60 minutes after glucose administration and the blood glucose concentrations of SD rats were measured continuously on blood-glucose meter. The decline rate of the area under the blood sugar curve within 60 minutes (AUCGlu 0-60 min) after sugar loading was calculated.
After blood glucose level at 60 min time point was measured, each group was placed in a metabolism cage, and the urine was collected during 1.5 hours to 24 hours and 24 hours to 48 hours after drug administration with the metabolism cage as the unit. The urine volume of each metabolism cage at each point was recorded. The urine was collected and centrifuged to obtain the supernatant. The […] had free access to food and water during the urine collection. The urine glucose concentration of SD rats at each time point was determined on automatic biochemical analyzer.

human SGLT1 = human SGLT1 (Homo sapiens (Human), UniProt P13866); assay: Test of inhibitory activity on SGLT1 (14C-AMG uptake in CHO cells expressing human SGLT1); assay type: cell-based; settings: CHO cells expressing human SGLT1, 0.5 μM 14C-AMG, 37° C. 1 hour
human SGLT1, sequence (P13866 whole entry): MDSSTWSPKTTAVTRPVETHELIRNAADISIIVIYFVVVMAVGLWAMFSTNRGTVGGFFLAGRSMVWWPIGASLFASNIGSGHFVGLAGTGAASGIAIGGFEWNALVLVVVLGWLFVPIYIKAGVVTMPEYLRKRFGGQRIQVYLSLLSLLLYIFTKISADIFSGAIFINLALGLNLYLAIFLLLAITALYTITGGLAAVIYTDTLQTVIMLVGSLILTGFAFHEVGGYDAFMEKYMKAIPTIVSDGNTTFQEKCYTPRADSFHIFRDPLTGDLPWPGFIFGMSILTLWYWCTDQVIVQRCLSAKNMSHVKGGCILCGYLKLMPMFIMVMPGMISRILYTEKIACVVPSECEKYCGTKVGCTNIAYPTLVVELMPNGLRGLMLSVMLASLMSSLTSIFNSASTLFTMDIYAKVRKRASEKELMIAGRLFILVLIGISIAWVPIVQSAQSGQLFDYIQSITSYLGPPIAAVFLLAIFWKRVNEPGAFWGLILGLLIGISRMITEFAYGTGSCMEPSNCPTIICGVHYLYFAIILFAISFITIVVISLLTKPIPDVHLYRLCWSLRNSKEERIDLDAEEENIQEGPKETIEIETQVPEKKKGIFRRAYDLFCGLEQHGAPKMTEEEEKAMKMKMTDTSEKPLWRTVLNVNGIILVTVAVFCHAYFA
Protocol: 1. Test of Inhibitory Activity on SGLT1
the following methods can be used to determine the inhibitory activity of the compounds described in the invention on SGLT-1.
mock-transfected FIP-in CHO cells (3×10^4) and CHO cells expressing human SGLT1 gene were seeded into 96-well plates respectively. The cells were incubated for 12 hours. Each well of the 96-well plate was washed with 150 μL of sodium-free buffer once. To each well was added 50 μL of sodium-containing buffer containing test compounds of different concentrations and 0.5 μM […]. The incubation mixture was incubated at 37° C. for 1 hour. To each well was added 150 μL of precooled sodium-free buffer to terminate the reaction. The cell pellet was washed with sodium-free buffer three times and the residual liquid in well was removed. To each well was added 20 μL of precooled 100 mM NaOH. The 96-well plate was vibrated at 900 rpm for 5 minutes. Scintillation fluid (80 μL) was added to each well which was then vibrated at 600 rpm for 5 minutes. The amount of 14C-AMG was quantitatively detected using liquid scintillation.

Row | pIC50 (human SGLT1) | Compound | hypoglycemic rate (SD rats) [%]
1 | 9.66 | CC[C@H]1O[C@@H](c2ccc(C)c(Cc3ccc(CCCC(=O)NC4(C(=O)NCCN(C)C)CCCCC4)cc3)c2)[C@H](O)[C@@H](O)[C@@H]1O [Example 1, N-(2-dimethylaminoethyl)-1-[4-[4-[[5-[(2S, 3R, 4S, 5S, 6R)-6-ethyl-3,4,5-trihydroxy-tetrahydropyran-2-yl]-2-methyl-phenyl]methyl]phenyl]butyrylamino] cyclohexyl formamide] | 31.28
2 | 9.60 | CCC[C@H]1O[C@@H](c2ccc(C)c(Cc3ccc(CCCC(=O)NC4(C(=O)NCCN(C)C)CCCCC4)cc3)c2)[C@H](O)[C@@H](O)[C@@H]1O [Example 3, N-(2-dimethylaminoethyl)-1-[4-[4-[[2-methyl-5-[(2S, 3R, 4S, 5S, 6R)-3,4,5-trihydroxy-6-propyl-tetrahydropyran-2-yl]phenyl]methyl]phenyl]butyrylamino] cyclohexylformamide] | 29.42
3 | 8.93 | Cc1ccc([C@]23OC[C@](CO)(O2)[C@@H](O)[C@H](O)[C@H]3O)cc1Cc1ccc(CCCC(=O)NC2(C(=O)NCCN(C)C)CCCCC2)cc1 [Example 4, N-(2-dimethylaminoethyl)-1-[4-[4-[[2-methyl-5-[(1S, 2S, 3S, 4R, 5S)-2,3,4,-trihydroxy-1-(hydroxymethyl)-6,8-dioxabicyclo [3.2.1]octane-5-yl]phenyl]methyl]phenyl]butyrylamino] cyclohexyl formamide] | 26.25
